Earlier results as cited in patent US7807599B2, “Hydroconversion processes employing multi-metallic catalysts and method for making thereof” (Chevron U. S. A. Inc., priority 2007, dated 2010).

Tested on: rats
Conditions: as single oral dose to rats

Structure (SMILES): O=CC(=O)O [glyoxylic]
- LD50: 3000 mg/kg
